# Assay results taken from patent US9157909B2, “Male reproductive health panel and uses thereof” (priority 2007, dated 2015).
# Like-named read-outs stand apart in the source and are kept apart here.
# Legend:
# human sperm [1] = test system: human sperm
# Method: (§1) In vitro oxidative stress exposure; human sperm from a fertile […] were exposed to increasing hydrogen peroxide (H2O2) concentrations (0, 10, 50 and 100 μM), and incubated at 37° C., for 15 min and 1 hr.
# (§2) Sperm was isolated from the seminal plasma as previously described in Brown et al. 1995. The sperm pellet was resuspended in phosphate buffered saline (PBS), pH=7.4, and divided into 4 aliquots. Each aliquot (equal sperm concentrations) was incubated at 37° C. in PBS with H2O2 concentrations of 0, 10, 50, and 100 μM for 15 min and 1 hr. All aliquots were divided into 2 portions. One portion was used to determine LPO.
# (§3) The remaining portion was centrifuged at 1500 g for 15 min at room temperature. The pellet was analyzed in the HSAA.
# Sperm chromatin decondensation and nuclear recondensation were evaluated in sperm exposed to increasing concentrations of H2O2 for 15 min and 1 hr using the HSAA. Sperm were analyzed at different incubation times in the egg extract using the image analysis Methamorph software system. The sperm nuclear activation was scored in 5 categories: 1) full decondensation: sperm diameter 25-30 μm, 2) partial decondensation: sperm diameter<25 μm, 3) non-decondensed, 4) hyperdecondensed: sperm diameter>(25-30 μm), and full recondensation.
# sperm [2] = conditions: comet assay, direct exposure of sperm; cited from earlier work
# human sperm [3] = conditions: for sperm heavily labeled by ^3H-TTP incorporation: incubation not printed (15 min implied)
# Method: FIG. 3: HSAA—The effect of oxidative stress on DNA synthesis. Pictorial representation of autoradiographs of control untreated sperm (A-E) and sperm exposed to 100 μM H2O2 for 1 hr (a-e) assayed in the HSAA in the presence of ^3H-TTP. All the pictures were photographed using bright microscopy 60× objective. […] All pictures were printed at the same magnification.
# as §1, §2, §3
# human sperm [4] = conditions: 50 and 100 μM H2O2 (15 min); 10, 50 and 100 μM H2O2 (1 hr)
# Method: as §2
# human sperm [5] = experiment: HSAA of sperm exposed to ROS from PMA-activated PMNL with or without Trolox; assay type: cell-based
# Method: PMNLs were isolated from blood of healthy donors by density gradient centrifugation. Activation and the number of peroxidase-positive leukocytes were determined using the Endtz test. Sperm from fertile males were isolated using percoll gradients (40 and 80%). Sperm from the 80% fraction was divided into 6 aliquots: 1) control non-treated sperm, 2) sperm treated with ROS inducer phorbol-12 myristate-13 acetate (PMA), 3) non-treated sperm with non-treated PMNL, 4) sperm with PMA treated PMNL, 5) sperm with PMA treated PMNL plus Trolox 40 μM, and 6) non-treated sperm plus Trolox 40 μM. Following an incubation period, sperm were evaluated for (A) sperm activation events in the HSAA, evaluating sperm activation events (decondensation, DNA synthesis, and recondensation) at 15 min, and 2 hr, and (B) determining ROS levels via nitroblue of tetrazolium (NBT) and spectrophotometry.
# sperm [6] = conditions: sperm exposed to hydroxylamine, analyzed in the HSAA; cited from earlier work
# [7] = Trolox 40 μM with PMA treated PMNL (oxidative stress)
smiles,measurement,setting,value
"OO [H2O2, hydrogen peroxide]",hyper-decondensed sperm,"human sperm [1]; 10 μM H2O2, 2 and 3 hr incubation in egg extract (results combined)",No sperm were hyper-decondensed
same,"recondensation appearance (FIG. 3d, e)","human sperm [1]; 100 μM H2O2, 1 hr exposure, 2 and 3 hr incubation in egg extract",irregular recondensation
same,recondensed sperm,"human sperm [1]; 10 and 50 μM H2O2, 15 min exposure, 15 min incubation in egg extract",No recondensed sperm were observed
same,non-decondensed sperm,"human sperm [1]; other concentrations (50 and 100 μM H2O2), any exposure time point, 15 min incubation in egg extract",no sperm were non-decondensed
same,H2O2 concentration at which induction of DNA fragmentation was significant,sperm [2],200 µM
same,^3H-TTP incorporation (autoradiography),"human sperm [3]; 10 μM H2O2, 15 min and 1 hr exposure, 2 and 3 hr incubations in egg extract",normal ^3H-TTP incorporation
same,^3H-TTP incorporation (autoradiography),"human sperm [3]; 10 μM H2O2, 15 min and 1 hr exposure, 5 and 15 min incubations in egg extract",no incorporation of ^3H-TTP
same,heavily labeled sperm (^3H-TTP),"human sperm [3]; 10 μM H2O2, 15 min and 1 hr exposures, 3 hr incubation in egg extract",98±2%
same,sperm positive for ^3H-TTP incorporation,"human sperm [3]; 10 μM H2O2, 15 min and 1 hr exposures, incubation time not printed (15 min in egg extract implied)",No sperm were positive
same,sperm positive for ^3H-TTP incorporation,"human sperm [3]; 10 μM H2O2, 5 min incubation in egg extract per heading (sentence prints 15 min extract incubation)",No sperm were positive
same,sperm heavily labeled by ^3H-TTP incorporation,"human sperm [3]; 50 μM H2O2, 15 min exposure",10±2%
same,sperm heavily labeled by ^3H-TTP incorporation,"human sperm [3]; 100 μM H2O2, 15 min exposure",50±5%
same,"onset of DNA synthesis (autoradiograph, FIG. 3b)","human sperm [3]; 100 μM H2O2, 1 hr exposure, 5 min incubation in egg extract",early initiation of DNA synthesis
same,"onset of DNA synthesis (autoradiograph, FIG. 3c)","human sperm [3]; 100 μM H2O2, 1 hr exposure, 15 min incubation in egg extract",early initiation of DNA synthesis
same,sperm heavily labeled by ^3H-TTP incorporation,"human sperm [3]; 100 μM H2O2, 1 hr exposure",45±9%
same,^3H-TTP incorporation (autoradiography),"human sperm [3]; 50 and 100 μM H2O2, 15 min and 1 hr exposure",abnormal ^3H-TTP incorporation
same,"LPO (amount of MDA and hydroxyalkenals), means compared to untreated control sperm",human sperm [4],significantly different
"Cc1c(C)c2c(c(C)c1O)CCC(C)(C(=O)O)O2 (stereo not shown) [Trolox, 6-Hydroxy-2,5,7,8-tetramethylchroman-. 2-carboxylic acid]",decondensation response,human sperm [5]; [7],improved responses in decondensation
same,early ^3H-TTP incorporation,human sperm [5]; [7],no early ^3H-TTP incorporation
same,sperm having recondensed chromatin,"human sperm [5]; Trolox 40 μM with PMA treated PMNL, 2 hr time point, only 57% without Trolox",78%
NO [hydroxylamine],onset of DNA synthesis,sperm [6],early initiation of DNA synthesis
same,sperm decondensation response,sperm [6],minimal decondensation
